Read-outs that look alike come from different tables or passages of the source. Each block holds one molecule with its values, some of them ahead of it.
Columns and labels:
[1] = Stability test of amorphous form and crystal form I at 105° C. and 60° C.; assay type: physicochemical
Experimental: The “destructive impurity” described herein refers to an additional peak in a liquid chromatogram of a sample in a stability test compared with the liquid chromatogram of the sample on day 0.
The bottles were let stand at 105° C. (samples were taken on days 3, 5 and 10) and at 60° C. (samples were taken on days 10, 20 and 30). The taken samples were investigated for changes in appearance, related substances and form.
Proper amounts of amorphous form samples of the compound (I) were placed into weighing bottles. The bottles were let stand at 105° C. (samples were taken on days 3, 5 and 10) and at 60° C. (samples were taken on days 10, 20 and 30). The taken samples were investigated for changes in appearance, related substances.

[2] = system: SNU-16 cells; assay: Cell viability assay (Cell titer-Glo, 72 h); assay type: cell-based; settings: for IC50: SNU-16 gastric cancer cells with FGFR abnormalities, 72 h, Cell titer-Glo, read-out: Inhibitory activity (nM) on SNU-16 cells (IC50)
Experimental: SNU-16 is a gastric cancer cell with FGFR abnormalities.
Instrument: Espire multi-functional microplate reader
SNU-16 cells were seeded in a 96-well plate for adherent culture overnight, and then compounds at different concentrations (12 dose groups, serial 3-fold dilution with DMSO) were added to give final concentrations of 0.17-30000 nM, wherein the final DMSO content was 5%. Negative control wells contained a 5% DMSO medium. The plate was incubated at 37° C., 5% CO2 and 95% humidity for 72 h for later test. 30 μL of Cell titer-Glo reagent was added to each well, and after the plate was incubated at room temperature for 30 min, the final data were read by Espire.

[3] = Stability test of crystal form I under influencing factors (60° C., RH 92.5%, RH 75%, illumination); assay type: physicochemical
Excerpt: Samples were taken on days 0, 4 and 10, and investigated for changes in properties and purity.

[4] = 60° C., Day 10, additional HPLC peaks vs day 0
[5] = Illumination (≥4500±500 Lux), Day 4
[6] = Illumination (≥4500±500 Lux), Day 10

Appearance ([1]; 60° C., Day 10): Pale yellow powder
Related substances (%) ([1]; 60° C., Day 10): 0.73%
Destructive impurity (%) [1, 4]: 0.06%
Appearance ([1]; 60° C., Day 20): Pale yellow powder
Related substances (%) ([1]; 60° C., Day 20): 0.72%
Appearance ([1]; 60° C., Day 30): Pale yellow powder
Related substances (%) ([1]; 60° C., Day 30): 0.75%
Appearance ([1]; 105° C., Day 3): Pale yellow powder
Related substances (%) ([1]; 105° C., Day 3): 1.3%
Appearance ([1]; 105° C., Day 5): Pale yellow powder
Related substances (%) ([1]; 105° C., Day 5): 1.6%
Appearance ([1]; 105° C., Day 10): Pale yellow powder
Related substances (%) ([1]; 105° C., Day 10): 2.5%
Appearance ([1]; Day 0): Pale yellow powder
Destructive impurity (%) ([1]; Day 0): None
Related substances (%) ([1]; Day 0): 0.62%
Number of destructive impurities detected (HPLC) ([1]; stored at 60° C. for 30 days): 2
Number of destructive impurities detected (HPLC) ([1]; stored at 105° C. for 10 days): 7
Compound: C=CC(=O)N1C[C@@H](Nc2ncc3cc(-c4c(Cl)c(OC)cc(OC)c4Cl)ccc3n2)C[C@H]1CO [Amorphous form, 1-((2S,4S)-4-((6-(2,6-dichloro-3,5-dimethoxyphenyl)quinazolin-2-yl)amino)-2-(hydroxymethyl)pyrrolidin-1-yl)prop-2-en-1-one]
IC50 ([2]; Homo sapiens, SNU-16, 72 h): 11 nM

Appearance ([3]; 60° C., Day 4, open bottle): Off-white powder
Purity % ([3]; 60° C., Day 4, open bottle): 99.6%
Appearance ([3]; 60° C., Day 10, open bottle): Off-white powder
Purity % ([3]; 60° C., Day 10, open bottle): 99.6%
Appearance ([3]; 75% RH, Day 4, open bottle): Off-white powder
Purity % ([3]; 75% RH, Day 4, open bottle): 99.6%
Appearance ([3]; 75% RH, Day 10, open bottle): Off-white powder
Purity % ([3]; 75% RH, Day 10, open bottle): 99.6%
Appearance ([3]; 92.5% RH, Day 4, open bottle): Off-white powder
Purity % ([3]; 92.5% RH, Day 4, open bottle): 99.6%
Appearance ([3]; 92.5% RH, Day 10, open bottle): Off-white powder
Purity % ([3]; 92.5% RH, Day 10, open bottle): 99.6%
Appearance ([3]; Day 0): Off-white powder
Purity % ([3]; Day 0): 99.6%
Appearance [3, 5]: Off-white powder
Purity % [3, 5]: 99.6%
Appearance [3, 6]: Pale yellow powder
Purity % [3, 6]: 99.5%
Change of appearance and purity ([3]; after 10 days in various influencing factor conditions): did not change significantly
Appearance ([1]; 60° C., Day 10): Off-white powder
Form (XRPD) ([1]; 60° C., Day 10): Crystal form I
Related substances (%) ([1]; 60° C., Day 10): 0.64%
Destructive impurity (%) [1, 4]: Undetectable
Appearance ([1]; 60° C., Day 20): Off-white powder
Form (XRPD) ([1]; 60° C., Day 20): Crystal form I
Related substances (%) ([1]; 60° C., Day 20): 0.64%
Destructive impurity (%) ([1]; 60° C., Day 20, additional HPLC peaks vs day 0): Undetectable
Appearance ([1]; 60° C., Day 30): Off-white powder
Form (XRPD) ([1]; 60° C., Day 30): Crystal form I
Related substances (%) ([1]; 60° C., Day 30): 0.68%
Destructive impurity (%) ([1]; 60° C., Day 30, additional HPLC peaks vs day 0): Undetectable
Appearance ([1]; 105° C., Day 3): Off-white powder
Form (XRPD) ([1]; 105° C., Day 3): Crystal form I
Related substances (%) ([1]; 105° C., Day 3): 0.62%
Destructive impurity (%) ([1]; 105° C., Day 3, additional HPLC peaks vs day 0): Undetectable
Appearance ([1]; 105° C., Day 5): Off-white powder
Form (XRPD) ([1]; 105° C., Day 5): Crystal form I
Related substances (%) ([1]; 105° C., Day 5): 0.60%
Destructive impurity (%) ([1]; 105° C., Day 5, additional HPLC peaks vs day 0): Undetectable
Appearance ([1]; 105° C., Day 10): Off-white powder
Form (XRPD) ([1]; 105° C., Day 10): Crystal form I
Related substances (%) ([1]; 105° C., Day 10): 0.63%
Destructive impurity (%) ([1]; 105° C., Day 10, additional HPLC peaks vs day 0): Undetectable
Appearance ([1]; Day 0): Off-white powder
Destructive impurity (%) ([1]; Day 0): None
Form (XRPD) ([1]; Day 0): Crystal form I
Related substances (%) ([1]; Day 0): 0.64%
Change of appearance, related substances and form ([1]; after storage at 105° C. for 10 days and at 60° C. for 30 days): did not change significantly
Compound: C=CC(=O)N1C[C@@H](Nc2ncc3cc(-c4c(Cl)c(OC)cc(OC)c4Cl)ccc3n2)C[C@H]1CO [Crystal form I, 1-((2S,4S)-4-((6-(2,6-dichloro-3,5-dimethoxyphenyl)quinazolin-2-yl)amino)-2-(hydroxymethyl)pyrrolidin-1-yl)prop-2-en-1-one]
Inhibitory activity on SNU-16 cells (in words) ([2]; SNU-16 cells with FGFR abnormalities): good inhibitory activity
IC50 [2]: 9.5 nM

— US20240043408A1, “CRYSTAL FORM OF FIBROBLAST GROWTH FACTOR RECEPTOR INHIBITOR AND PREPARATION METHOD THEREFOR” (Transthera Sciences (Nanjing), Inc., priority 2020, published 2024)
